Columns and labels:
HEK-293 cells = experiment: HEK-293 cytotoxicity detection (CellTiter-Glo); type: cell-based; conditions: Homo sapiens, 72 h, 72 h incubation, CellTiter-Glo luminescence, read-out: HEK293
Protocol: HEK-293 cells were treated with compounds diluted in 0.2% DMSO, dilution was done according to the following protocol: (1) making 500× stock solution in DMSO from 5 mM by 4-fold dilution, total 8 doses were included; (2) making 2× solution in cell culture medium by transferring 0.5 ul 500× stock solution into 125 ul medium; (3) adding 50 ul of 2× solution to cells for incubation of 72 h.
25 μl of the CellTiter-Glo®Reagent [(Promega)—Cat No. G7572] was added to each well in the 96-well plate. The contents were mixed for 2 minutes on an orbital shaker to induce cell lysis. The plate was then allowed to incubate at room temperature for 10 minutes to stabilize luminescent signal. Luminescence was recorded on BMG PheraStar with luminescence protocol.
The inhibition percentage of the compound was calculated by the following equation: Inhibition percentage of Compound=100−100×(Signal-low control)/(High control-low control), wherein signal=each test compound group
High control=Cell group with added DMSO and without compound, indicating cells proliferation with no inhibition;
Imax is the maximum percentage of inhibition.
The IC50 value of a compound can be obtained by fitting the following equation
(§1) Wherein, X and Y are known values, and IC50, Hillslope, Top and Bottom are the parameters obtained by fitting with software. Y is the inhibition percentage (calculated from the equation), X is the concentration of the compound; IC50 is the concentration of the compound when the 50% inhibition is reached. The smaller the IC50 value is, the stronger the inhibitory ability of the compound is. Vice versa, the higher the IC50 value is, the weaker the ability the inhibitory ability of the compound is; Hillslope represents the slope of the fitted curve, generally around 1*; Bottom represents the minimum value of the curve obtained by data fitting, which is generally 0%±20%; Top represents the maximum value of the curve obtained by data fitting, which is generally 100%±20%. The experimental data were fitted by calculating and analyzing with Dotmatics data analysis software.

BTK = BTK (Homo sapiens, UniProt Q06187); experiment: BTK cell degradation in TMD-8 cells, HTRF assay; type: cell-based; design: endogenous in cells; host or cells: TMD-8 cells; conditions: 6 h treatment, IC50 (DC50) of BTK degradation
BTK, sequence (Q06187 whole entry): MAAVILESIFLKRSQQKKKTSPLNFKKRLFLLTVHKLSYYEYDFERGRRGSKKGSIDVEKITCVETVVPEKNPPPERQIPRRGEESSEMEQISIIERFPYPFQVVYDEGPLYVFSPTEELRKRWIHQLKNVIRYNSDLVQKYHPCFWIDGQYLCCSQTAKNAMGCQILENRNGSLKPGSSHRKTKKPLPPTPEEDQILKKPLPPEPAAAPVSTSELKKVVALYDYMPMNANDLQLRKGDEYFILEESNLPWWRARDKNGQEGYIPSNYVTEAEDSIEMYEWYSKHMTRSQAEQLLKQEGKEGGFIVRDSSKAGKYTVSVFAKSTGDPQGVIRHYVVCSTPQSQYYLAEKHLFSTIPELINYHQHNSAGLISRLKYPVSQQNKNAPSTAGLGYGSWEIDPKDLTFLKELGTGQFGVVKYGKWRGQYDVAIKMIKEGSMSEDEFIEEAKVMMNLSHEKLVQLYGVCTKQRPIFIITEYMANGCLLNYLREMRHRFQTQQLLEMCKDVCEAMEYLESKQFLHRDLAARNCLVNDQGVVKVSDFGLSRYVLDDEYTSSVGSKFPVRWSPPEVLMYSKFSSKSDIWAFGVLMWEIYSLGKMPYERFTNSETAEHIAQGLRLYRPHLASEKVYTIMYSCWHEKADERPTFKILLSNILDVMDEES
Protocol: TMD-8 cells were treated with compounds diluted in 0.2% DMSO, dilution was done according to the following protocol: (1) making 500× stock solution in DMSO from 1 mM by 6-fold dilution, total 8 doses were included; (2) making 2× solution in cell culture medium by transferring 0.5 μl 500× stock solution into 125 μl medium; (3) adding 15 μl of 2× solution to cells for incubation of 6 h.
After 6 h treatment, 10 μl 14×lysis buffer was added to each well; the plate was sealed and incubated for 30 min at room temperature on a plate shaker; Once the cells was lysed, 16 μL of cell lysate were transferred to a PE 384-well HTRF detection plate; 4 μL of pre-mixed HTRF antibodies were added to each well; the plate was covered with a plate sealer, and then spinned at 1000 rpm for 1 min, then incubated overnight at room temperature; the results were read on BMG PheraStar with HTRF protocol (337 nm-665 nm-620 nm).
The inhibition (degradation) percentage of the compound was calculated by the following equation: Inhibition percentage of Compound=100−100×(Signal-low control)/(High control-low control), wherein signal=each test compound group
High control=Cell group with added DMSO and without compound, indicating microplate readings without BTK degradation;
Dmax is the maximum percentage of inhibition (degradation).
The IC50 (DC50) value of a compound can be obtained by fitting the following equation
Y=Bottom+(TOP−Bottom)/(1+((IC50/X)^hillslope))
as §1, with “wherein,” for “Wherein,”

Compound	DC50 (BTK)	IC50 (HEK-293 cells)
NC(=O)c1c(-c2ccc(Oc3ccccc3)cc2)nn2c1Nc1cc(C3CCN(CCC4CCN(c5ccc(N6CCC(=O)NC6=O)cc5)CC4)CC3)ccc1CC2 [Example A23, 6-(1-(2-(1-(4-(2,4-dioxotetrahydropyrimidin-1(2H)-yl)phenyl)piperidin-4-yl)ethyl)piperidin-4-yl)-2-(4-phenoxyphenyl)-9,10-dihydro-4H-benzo[d]pyrazolo[1,5-a] [1,3]diazepine-3-carboxamide]	0.00923 µM	0.445 µM
NC(=O)c1c(-c2ccc(Oc3ccccc3)cc2)nn2c1Nc1ccc(OCCC3CCN(c4ccc(N5CCC(=O)NC5=O)cc4)CC3)cc1CC2 [Example A24, 7-(2-(1-(4-(2,4-dioxotetrahydropyrimidin-1(2H)-yl)phenyl)piperidin-4-yl)ethoxy)-2-(4-phenoxyphenyl)-9,10-dihydro-4H-benzo[d]pyrazolo[1,5-a][1,3]diazepine-3-carboxamide]	0.00926 µM	0.235 µM
NC(=O)c1c(-c2ccc(Oc3ccccc3)cc2)nn2c1Nc1cc(OCCC3CCN(c4ccc(N5CCC(=O)NC5=O)cc4)CC3)ccc1CC2 [Example A25, 6-(2-(1-(4-(2,4-dioxotetrahydropyrimidin-1(2H)-yl)phenyl)piperidin-4-yl)ethoxy)-2-(4-phenoxyphenyl)-9,10-dihydro-4H-benzo[d]pyrazolo[1,5-a][1,3]diazepine-3-carboxamide]	0.0249 µM	> 10 µM
NC(=O)c1c(-c2ccc(Oc3ccccc3)cc2)nn2c1Nc1ccc(CCC3CCN(c4ccc(NC5CCC(=O)NC5=O)cc4)CC3)cc1CC2 (stereo not drawn) [Example A26, 7-(2-(1-(4-((2,6-dioxopiperidin-3-yl)amino)phenyl)piperidin-4-yl)ethyl)-2-(4-phenoxyphenyl)-9,10-dihydro-4H-benzo[d]pyrazolo[1,5-a][1,3] diazepine-3-carboxamide]	0.016 µM	0.283 µM
NC(=O)c1c(-c2ccc(Oc3ccccc3)cc2)nn2c1Nc1ccc(C3CCN(CCC4CCN(c5ccc(N6CCC(=O)NC6=O)cc5)CC4)CC3)cc1CC2 [Example A28, 7-(1-(2-(1-(4-(2,4-dioxotetrahydropyrimidin-1(2H)-yl)phenyl)piperidin-4-yl)ethyl)piperidin-4-yl)-2-(4-phenoxyphenyl)-9,10-dihydro-4H-benzo[d]pyrazolo[1,5-a][1,3]diazepine-3-carboxamide]	0.00201 µM	0.0811 µM
CC(C)(C)c1ccc(Oc2ccc(-c3nn4c(c3C(N)=O)Nc3ccc(C5CCN(CC6CCN(c7ccc(N8CCC(=O)NC8=O)cc7)CC6)CC5)cc3CC4)cc2)cc1 [Example A31, 2-(4-(4-(tert-butyl)phenoxy)phenyl)-7-(1-((1-(4-(2,4-dioxotetrahydropyrimidin-1(2H)-yl)phenyl)piperidin-4-yl)methyl)piperidin-4-yl)-9,10-dihydro-4H-benzo[d]pyrazolo[1,5-a][1,3]diazepine-3-carboxamide]	0.0119 µM	0.556 µM
NC(=O)c1c(-c2ccc(Oc3ccccc3)cc2)nn2c1Nc1cc(C3CCN(CCCOc4ccc(NC5CCC(=O)NC5=O)cc4)CC3)ccc1CC2 (stereo not drawn) [Example A32, 6-(1-(3-(4-((2,6-dioxopiperidin-3-yl)amino)phenoxy)propyl)piperidin-4-yl)-2-(4-phenoxyphenyl)-9,10-dihydro-4H-benzo[d]pyrazolo[1,5-a] [1,3]diazepine-3-carboxamide]	0.00603 µM	0.417 µM
NC(=O)c1c(-c2ccc(Oc3ccccc3)cc2)nn2c1Nc1cc(C3CCN(CCc4ccc(N5CCC(=O)NC5=O)cc4)CC3)ccc1CC2 [Example A33, 6-(1-(4-(2,4-dioxotetrahydropyrimidin-1(2H)-yl)phenethyl)piperidin-4-yl)-2-(4-phenoxyphenyl)-9,10-dihydro-4H-benzo[d]pyrazolo[1,5-a][1,3]diazepine-3-carboxamide]	> 2 µM	0.314 µM
NC(=O)c1c(-c2ccc(Oc3ccccc3)cc2)nn2c1Nc1cc(C3CCN(CCc4ccc(C5CCC(=O)NC5=O)cc4)CC3)ccc1CC2 (stereo not drawn) [Example A34, 6-(1-(4-(2,6-dioxopiperidin-3-yl)phenethyl)piperidin-4-yl)-2-(4-phenoxyphenyl)-9,10-dihydro-4H-benzo[d]pyrazolo[1,5-a][1,3]diazepine-3-carboxamide]	0.0119 µM	0.337 µM
NC(=O)c1c(-c2ccc(Oc3ccccc3)cc2)nn2c1Nc1cc(C3CCN(CC4CCN(c5ccc(NC6CCC(=O)NC6=O)cc5)CC4)CC3)ccc1CC2 (stereo not drawn) [Example A35, 6-(1-((1-(4-((2,6-dioxopiperidin-3-yl)amino)phenyl)piperidin-4-yl)methyl)piperidin-4-yl)-2-(4-phenoxyphenyl)-9,10-dihydro-4H-benzo[d]pyrazolo[1,5-a][1,3]diazepine-3-carboxamide]	0.0691 µM	0.241 µM

Second part, led by results:

DC50 (BTK)	Compound	IC50 (HEK-293 cells)
0.00673 µM	NC(=O)c1c(-c2ccc(Oc3ccccc3)cc2)nn2c1Nc1cc(C3CCN(CC4CCN(c5ccc(N6CCC(=O)NC6=O)cc5)CC4)CC3)ccc1CC2 [Example A27, 6-(1-((1-(4-(2,4-dioxotetrahydropyrimidin-1(2H)-yl)phenyl)piperidin-4-yl)methyl)piperidin-4-yl)-2-(4-phenoxyphenyl)-9,10-dihydro-4H-benzo[d]pyrazolo[1,5-a][1,3]diazepine-3-carboxamide]	0.317 µM
0.00158 µM	NC(=O)c1c(-c2ccc(Oc3ccccc3)cc2)nn2c1Nc1ccc(C3CCN(CC4CCN(c5ccc(N6CCC(=O)NC6=O)cc5)CC4)CC3)cc1CC2 [Example A30, 7-(1-((1-(4-(2,4-dioxotetrahydropyrimidin-1(2H)-yl)phenyl)piperidin-4-yl)methyl)piperidin-4-yl)-2-(4-phenoxyphenyl)-9,10-dihydro-4H-benzo[d]pyrazolo[1,5-a][1,3]diazepine-3-carboxamide]	0.0287 µM
0.0036 µM	COc1cc(Oc2ccccc2)ccc1-c1nn2c(c1C(N)=O)Nc1ccc(N3CCN(CC4CCN(c5ccc(N6CCC(=O)NC6=O)cc5)CC4)CC3)cc1CC2 [Example A36, 7-(4-((1-(4-(2,4-dioxotetrahydropyrimidin-1(2H)-yl)phenyl)piperidin-4-yl)methyl)piperazin-1-yl)-2-(2-methoxy-4-phenoxyphenyl)-9,10-dihydro-4H-benzo[d]pyrazolo[1,5-a][1,3]diazepine-3-carboxamide]	0.148 µM
0.00471 µM	NC(=O)c1c(-c2ccc(Oc3ccccc3)cc2F)nn2c1Nc1ccc(N3CCN(CC4CCN(c5ccc(N6CCC(=O)NC6=O)cc5)CC4)CC3)cc1CC2 [Example A37, 7-(4-((1-(4-(2,4-dioxotetrahydropyrimidin-1(2H)-yl)phenyl)piperidin-4-yl)methyl)piperazin-1-yl)-2-(2-fluoro-4-phenoxyphenyl)-9,10-dihydro-4H-benzo[d]pyrazolo[1,5-a][1,3]diazepine-3-carboxamide]	0.0699 µM
0.00112 µM	NC(=O)c1c(-c2ccc(OCc3ccccc3)cc2)nn2c1Nc1ccc(N3CCN(CC4CCN(c5ccc(N6CCC(=O)NC6=O)cc5)CC4)CC3)cc1CC2 [Example A38, 2-(4-(benzyloxy)phenyl)-7-(4-((1-(4-(2,4-dioxotetrahydropyrimidin-1(2H)-yl)phenyl)piperidin-4-yl)methyl)piperazin-1-yl)-9,10-dihydro-4H-benzo[d]pyrazolo[1,5-a][1,3]diazepine-3-carboxamide]	0.185 µM

Source: US20240246977A1, “DEGRADATION OF BRUTON'S TYROSINE KINASE (BTK) BY CONJUGATION OF BTK INHIBITORS WITH E3 LIGASE LIGAND AND METHOD OF USE” (BeiGene Switzerland GmbH, priority 2021, published 2024)
